This is an account of results in patent US11673897B2, “Compounds for the treatment of kinase-dependent disorders” (Exelixis, Inc., priority 2018, dated 2023).

SMILES strings stand for the structures. pIC50: −log10 of the molar value.

One assay deals with KDR (Homo sapiens (Human), UniProt P35968). The experiment in a line: KDR autophosphorylation ELISA in HUVEC cells. To be noted: cellular, VEGF165-stimulated, phospho-KDR ELISA. In kind it is cell-based. The essentials: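 HUVEC, 24 h serum-free starvation; cpd 8-pt dilution, 0.3% DMSO final, 1 h; VEGF165 100 ng/mL, 5 min; cold lysis; phospho-KDR ELISA; IC50, 4PL.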
Chain of KDR (P35968 20-1356): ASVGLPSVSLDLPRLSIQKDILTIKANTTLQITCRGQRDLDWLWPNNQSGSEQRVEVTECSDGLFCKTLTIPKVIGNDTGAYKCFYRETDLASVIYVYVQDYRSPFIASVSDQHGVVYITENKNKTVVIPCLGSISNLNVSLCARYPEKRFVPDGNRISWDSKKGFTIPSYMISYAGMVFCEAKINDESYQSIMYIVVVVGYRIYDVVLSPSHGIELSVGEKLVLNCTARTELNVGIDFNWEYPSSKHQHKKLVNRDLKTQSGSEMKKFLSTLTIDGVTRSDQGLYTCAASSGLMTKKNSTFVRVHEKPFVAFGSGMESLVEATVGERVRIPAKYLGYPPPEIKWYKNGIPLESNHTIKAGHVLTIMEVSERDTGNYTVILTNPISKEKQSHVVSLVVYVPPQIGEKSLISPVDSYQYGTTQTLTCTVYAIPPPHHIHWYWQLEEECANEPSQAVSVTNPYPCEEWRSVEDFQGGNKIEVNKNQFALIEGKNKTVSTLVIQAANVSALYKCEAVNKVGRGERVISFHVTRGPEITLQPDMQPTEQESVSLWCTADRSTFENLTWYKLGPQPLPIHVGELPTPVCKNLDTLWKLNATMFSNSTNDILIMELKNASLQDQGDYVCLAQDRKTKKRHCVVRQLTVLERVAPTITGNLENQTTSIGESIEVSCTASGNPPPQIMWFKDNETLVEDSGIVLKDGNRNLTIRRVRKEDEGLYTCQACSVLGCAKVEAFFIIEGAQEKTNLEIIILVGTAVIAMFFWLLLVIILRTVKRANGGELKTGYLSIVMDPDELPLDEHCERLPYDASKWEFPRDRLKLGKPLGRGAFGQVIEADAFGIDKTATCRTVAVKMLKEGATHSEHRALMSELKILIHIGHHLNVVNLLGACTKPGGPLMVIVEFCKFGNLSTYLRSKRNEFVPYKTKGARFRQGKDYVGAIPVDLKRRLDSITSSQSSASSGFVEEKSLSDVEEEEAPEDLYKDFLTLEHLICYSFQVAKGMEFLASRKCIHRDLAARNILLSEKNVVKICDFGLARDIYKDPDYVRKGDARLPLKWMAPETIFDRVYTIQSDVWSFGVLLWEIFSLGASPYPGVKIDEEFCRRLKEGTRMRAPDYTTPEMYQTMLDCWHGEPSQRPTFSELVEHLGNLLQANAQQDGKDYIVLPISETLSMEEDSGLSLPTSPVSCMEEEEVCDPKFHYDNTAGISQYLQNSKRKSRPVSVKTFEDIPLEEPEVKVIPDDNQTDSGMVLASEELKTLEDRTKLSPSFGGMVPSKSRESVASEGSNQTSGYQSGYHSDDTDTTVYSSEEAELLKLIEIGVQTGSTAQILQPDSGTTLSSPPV
On the technique in general: An ELISA detects its analyte on a solid surface through an enzyme-linked reagent.

Another assay has as its target Human Axl (Homo sapiens (Human), UniProt P30530, Q764R). As to the kind of experiment: Human AXL kinase assay (33P radiometric, KinaseProfiler). The class given is biochemical. To be noted: 10 μM ATP. The protocol:
(§1) Kinase activity and compound inhibition were investigated using the ^33P-Phosphoryl transfer radiometric kinase assay, performed using the KinaseProfiler™ service of Eurofins Pharma Discovery Services UK Limited. Dose-response experiments were performed using nine compound concentrations in a 96-well microtiter plate. For each assay, all compounds were prepared to a 50× final assay concentration (50 μM) in 100% DMSO, then diluted in a half-log series, with the final top concentration at 1 μM. This working stock of the compound was added to the assay well as the first component in the reaction, followed by the remaining components as detailed in the following assay protocols below. The positive control wells (100% kinase activity) contain all components of the reaction including 2% DMSO (control for solvent effects), except the compound of interest. Blank wells contain all components of the reaction, with the reference inhibitor, staurosporine. This reference compound was used to abolish kinase activity and generated the 0% kinase activity base-line. IC50 values were calculated by nonlinear regression analysis using the sigmoidal dose-response (variable slope) curve fit on XLFit version 5.3 (ID Business Solutions).
Human Axl (residues H473-A894 with Q764R, 161 nM) was incubated with 8 mM MOPS pH 7.0, 0.2 mM EDTA, 250 μM KKSRGDYMTMQIG (SEQ ID NO. 43), 10 mM magnesium acetate and 10 μM [γ-33P-ATP]. The reaction was initiated by the addition of the Mg/ATP mix. After incubation for 40 minutes at room temperature, the reaction was stopped by the addition of phosphoric acid to a concentration of 0.5%. A reaction aliquot of 10 μL was then spotted onto a P30 filtermat and washed four times for 4 minutes in 0.425% phosphoric acid and once in methanol prior to drying and scintillation counting. Incorporated ^33P was measured using the Wallac Microbeta scintillation counter (Perkin Elmer).

The target in assay [1] is T1, Met (Homo sapiens (Human), UniProt P08581). The experiment in a line: Human Met kinase assay (33P radiometric, KinaseProfiler). In kind it is biochemical. Conditions: 10 μM ATP, read-out: c-Met IC50. The protocol:
as §1
Human Met (residues R974-S1390 with A1209G and V1290L, 3.4 nM) was incubated with 8 mM MOPS pH 7.0, 0.2 mM EDTA, 250 μM KKKGQEEEYVFIE (SEQ ID NO. 45), 1 mM sodium orthovanadate, 5 mM […], 10 mM magnesium acetate, and 10 μM [γ-33P-ATP]. The reaction was initiated by the addition of the Mg/ATP mix. After incubation for 40 minutes at room temperature, the reaction was stopped by the addition of phosphoric acid to a concentration of 0.5%. A reaction aliquot of 10 μL was then spotted onto a P30 filtermat and washed four times for 4 minutes in 0.425% phosphoric acid and once in methanol prior to drying and scintillation counting. Incorporated 33P was measured using the Wallac Microbeta scintillation counter (Perkin Elmer).

Assay [2] concerns the target T1, Met. As to the kind of experiment: Met autophosphorylation ELISA in PC-3 cells. The class given is cell-based. To be noted: cellular, HGF-stimulated, phospho-Met ELISA, read-out: c-Met IC50. The essentials: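 PC-3 cells serum-starved 3 h were treated 1 h with an 8-point compound series (0.3% DMSO), then stimulated 10 min with 100 ng/mL human HGF. Phospho-Met (panTyr) in lysates was measured by sandwich ELISA against DMSO (100%) and reference-inhibitor (0%) controls, and IC50 came from a 4-parameter logistic fit.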
Target sequence in this assay (P08581 25-1390): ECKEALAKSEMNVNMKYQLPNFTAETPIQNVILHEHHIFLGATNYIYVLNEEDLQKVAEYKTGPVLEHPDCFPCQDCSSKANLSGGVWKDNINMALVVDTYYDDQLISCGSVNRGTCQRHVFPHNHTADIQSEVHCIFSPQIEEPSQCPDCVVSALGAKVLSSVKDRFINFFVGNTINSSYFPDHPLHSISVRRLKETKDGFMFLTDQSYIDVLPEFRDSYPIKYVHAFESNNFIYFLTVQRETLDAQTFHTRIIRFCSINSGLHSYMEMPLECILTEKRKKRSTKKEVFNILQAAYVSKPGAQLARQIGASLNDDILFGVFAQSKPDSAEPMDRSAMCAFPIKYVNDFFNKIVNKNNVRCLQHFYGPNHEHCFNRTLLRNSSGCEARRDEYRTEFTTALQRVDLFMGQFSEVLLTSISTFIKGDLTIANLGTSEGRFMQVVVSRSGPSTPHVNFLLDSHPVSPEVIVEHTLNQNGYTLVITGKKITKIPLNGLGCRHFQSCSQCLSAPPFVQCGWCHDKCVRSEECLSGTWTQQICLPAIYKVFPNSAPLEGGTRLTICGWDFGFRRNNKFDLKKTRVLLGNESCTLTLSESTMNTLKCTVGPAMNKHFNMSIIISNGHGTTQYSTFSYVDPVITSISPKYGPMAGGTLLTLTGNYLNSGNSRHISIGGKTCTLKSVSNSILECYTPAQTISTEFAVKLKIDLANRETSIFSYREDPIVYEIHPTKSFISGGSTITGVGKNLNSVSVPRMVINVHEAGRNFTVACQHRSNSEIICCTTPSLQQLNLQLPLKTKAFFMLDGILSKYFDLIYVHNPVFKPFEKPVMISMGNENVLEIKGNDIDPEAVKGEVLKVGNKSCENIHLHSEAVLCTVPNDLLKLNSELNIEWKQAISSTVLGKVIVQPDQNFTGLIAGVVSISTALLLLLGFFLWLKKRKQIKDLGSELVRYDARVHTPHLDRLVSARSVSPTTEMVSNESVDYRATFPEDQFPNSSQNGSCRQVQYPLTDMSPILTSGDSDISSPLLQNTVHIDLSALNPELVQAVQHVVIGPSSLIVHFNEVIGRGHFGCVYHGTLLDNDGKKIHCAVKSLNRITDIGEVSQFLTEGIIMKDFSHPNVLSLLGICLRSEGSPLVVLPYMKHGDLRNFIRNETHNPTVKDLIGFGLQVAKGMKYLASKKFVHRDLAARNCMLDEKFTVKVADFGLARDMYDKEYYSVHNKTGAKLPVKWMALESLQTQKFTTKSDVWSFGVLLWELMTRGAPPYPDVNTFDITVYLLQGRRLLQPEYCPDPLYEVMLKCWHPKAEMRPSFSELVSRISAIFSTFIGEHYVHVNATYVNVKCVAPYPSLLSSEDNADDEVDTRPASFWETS

Chain of Human Axl (P30530 473-894 Q764R): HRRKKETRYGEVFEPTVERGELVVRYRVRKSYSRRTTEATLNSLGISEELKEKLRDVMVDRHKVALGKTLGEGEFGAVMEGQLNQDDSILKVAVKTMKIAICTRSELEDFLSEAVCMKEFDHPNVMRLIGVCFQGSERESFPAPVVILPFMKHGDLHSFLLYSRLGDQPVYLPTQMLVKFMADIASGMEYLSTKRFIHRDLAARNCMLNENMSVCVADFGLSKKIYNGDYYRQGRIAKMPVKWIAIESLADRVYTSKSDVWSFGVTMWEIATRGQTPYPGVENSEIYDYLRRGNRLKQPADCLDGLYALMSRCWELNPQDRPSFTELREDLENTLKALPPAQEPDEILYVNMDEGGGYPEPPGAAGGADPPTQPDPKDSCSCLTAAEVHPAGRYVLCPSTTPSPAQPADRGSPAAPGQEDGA

As to `COc1cc2nccc(Oc3ccc(NC(=O)C4(C(=O)Nc5ccc(F)cc5)CC4)cn3)c2nc1OC` [Compound 81, 1-N′-[6-[(6,7-Dimethoxy-1,5-naphthyridin-4-yl)oxy]pyridin-3-yl]-1-N-(4-fluorophenyl)cyclopropane-1,1-dicarboxamide], the pIC50 at KDR is < 6.52; on Human Axl it was 7.00 to 8.00; at Met [1] it was 7.00 to 8.00; on Met [2], 6.52 to 7.00.
Turning to `COc1cc2nccc(Oc3ncc(NC(=O)C4(C(=O)Nc5ccc(F)cc5)CC4)cc3Cl)c2nc1OC` [Compound 80, 1-N′-[5-Chloro-6-[(6,7-dimethoxy-1,5-naphthyridin-4-yl)oxy]pyridin-3-yl]-1-N-(4-fluorophenyl)cyclopropane-1,1-dicarboxamide], the pIC50 against KDR was < 6.52; against Human Axl it was 7.00 to 8.00; at Met [1], 7.00 to 8.00; at Met [2], 7.00 to 8.00.
Turning to `COc1cc2nccc(Oc3ncc(NC(=O)C4(C(=O)Nc5ccc(F)cc5)CC4)cc3F)c2nc1OC` [Compound 82, 1-N′-[6-[(6,7-Dimethoxy-1,5-naphthyridin-4-yl)oxy]-5-fluoropyridin-3-yl]-1-N-(4-fluorophenyl)cyclopropane-1,1-dicarboxamide], the pIC50 was < 6.52 on KDR, ≥ 8.00 on Human Axl, ≥ 8.00 on Met [1] and 7.00 to 8.00 at Met [2].
Turning to `COC(=O)c1cc2c(Oc3ccc(NC(=O)C4(C(=O)Nc5ccc(F)cc5)CC4)cn3)ccnc2cc1OC` [Compound 10, Methyl 4-[5-[[1-[(4-fluorophenyl)carbamoyl]cyclopropanecarbonyl]-amino]pyridin-2-yl]oxy-7-methoxyquinoline-6-carboxylate], the negative-log IC50 (pIC50) was 7.00 to 8.00 against KDR, ≥ 8.00 at Human Axl, ≥ 8.00 at Met [1] and 6.52 to 7.00 at Met [2].
Regarding `CNC(=O)c1cc2c(Oc3ccc(NC(=O)C4(C(=O)Nc5ccc(F)cc5)CC4)cn3)ccnc2cc1OC` [Compound 17, 1-N-(4-Fluorophenyl)-1-N′-[6-[7-methoxy-6-(methylcarbamoyl)quinolin-4-yl]oxypyridin-3-yl]cyclopropane-1,1-dicarboxamide], the negative logarithm of the IC50 (pIC50) on KDR was 7.00 to 8.00; against Human Axl it was 7.00 to 8.00; on Met [1], 7.00 to 8.00; at Met [2] it was 6.52 to 7.00.
For `COc1cc2nccc(Oc3ccc(NC(=O)C4(C(=O)Nc5ccc(F)cc5)CC4)cn3)c2cc1-c1cn[nH]c1` [Compound 60, 1-N-(4-Fluorophenyl)-1-N′-[6-[7-methoxy-6-(1H-pyrazol-4-yl)quinolin-4-yl]oxypyridin-3-yl]cyclopropane-1,1-dicarboxamide], the negative logarithm of the IC50 (pIC50) at KDR is 6.52 to 7.00; on Human Axl, ≥ 8.00; at Met [1], ≥ 8.00; at Met [2], 7.00 to 8.00.
Regarding `COC(=O)c1cc2c(Oc3ncc(NC(=O)C4(C(=O)Nc5ccc(F)cc5)CC4)cc3Cl)ccnc2cc1OC` [Compound 11, Methyl 4-[3-chloro-5-[[1-[(4-fluorophenyl)carbamoyl]cyclopropanecarbonyl]-amino]pyridin-2-yl]oxy-7-methoxyquinoline-6-carboxylate], the pIC50 at KDR was < 6.52; at Human Axl it was ≥ 8.00; at Met [1], ≥ 8.00; on Met [2], 7.00 to 8.00.
Consider `COc1cc2nccc(Oc3ccc(NC(=O)C4(C(=O)Nc5ccc(F)cc5)CC4)cn3)c2cc1C(N)=O` [Compound 16, 1-N′-[6-(6-Carbamoyl-7-methoxyquinolin-4-yl)oxypyridin-3-yl]-1-N-(4-fluorophenyl)-cyclopropane-1,1-dicarboxamide], for which the pIC50 is 7.00 to 8.00 against KDR, 7.00 to 8.00 at Human Axl, ≥ 8.00 on Met [1] and 6.52 to 7.00 on Met [2].
Regarding `COc1cc2nccc(Oc3ncc(NC(=O)C4(C(=O)Nc5ccc(F)cc5)CC4)cc3Cl)c2cc1C(N)=O` [Compound 18, 1-N′-[6-(6-Carbamoyl-7-methoxyquinolin-4-yl)oxy-5-chloropyridin-3-yl]-1-N-(4-fluorophenyl)cyclopropane-1,1-dicarboxamide], the negative-log IC50 (pIC50) is < 6.52 at KDR, ≥ 8.00 against Human Axl, ≥ 8.00 on Met [1] and 7.00 to 8.00 at Met [2].

Usually pIC50 stands for the IC50 on a negative log10 scale, so that one unit is a factor of ten.
